Measurements reported in ChEMBL document CHEMBL1201862, “PubChem BioAssay data set” (2004).
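96-well plates; 48 h exposure; 5 concentrations. Endpoints by linear interpolation between flanking doses. Not reached: highest tested concentration assigned. GI50 is the concentration that inhibits growth by half.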 Active and inactive are the calls of the source. No stated cut-off is given here; in the data, active = GI50 up to about 1.1 µM and inactive = higher.

Key:
Assay in all cases: inhibition of tumour cell growth, NCI panel, 48 h
ACHN = system: ACHN
HL-60 = system: HL-60
M19-MEL = system: M19-MEL
OVCAR-3 = system: OVCAR-3
OVCAR-5 = system: OVCAR-5
NCI-H522 = system: NCI-H522
SK-MEL-28 = system: SK-MEL-28
U-251 = system: U-251
LOX IMVI = system: LOX IMVI
NCI-H460 = system: NCI-H460
SK-MEL-2 = system: SK-MEL-2
SK-OV-3 = system: SK-OV-3
UACC-257 = system: UACC-257
NCI-H226 = system: NCI-H226
SNB-19 = system: SNB-19
EKVX = system: EKVX
CCRF-CEM = system: CCRF-CEM
SF-539 = system: SF-539
CAKI-1 = system: CAKI-1
SK-MEL-5 = system: SK-MEL-5
SF-295 = system: SF-295
KM12 = system: KM12
SR = system: SR
LXFL 529 = system: LXFL 529
UACC-62 = system: UACC-62
SNB-75 = system: SNB-75
HT-29 = system: HT-29
HCT-116 = system: HCT-116
KM-20L2 = system: KM-20L2
COLO 205 = system: COLO 205
OVCAR-8 = system: OVCAR-8
NCI-H23 = system: NCI-H23
HCC 2998 = system: HCC 2998
TK-10 = system: TK-10
SF-268 = system: SF-268
786-0 = system: 786-0
Malme-3M = system: Malme-3M
M14 = system: M14
HCT-15 = system: HCT-15
SN12C = system: SN12C
K562 = system: K562
A498 = system: A498
HOP-62 = system: HOP-62
DLD-1 = system: DLD-1
RPMI-8226 = system: RPMI-8226
OVCAR-4 = system: OVCAR-4
UO-31 = system: UO-31
XF498 = system: XF498
SNB-78 = system: SNB-78
HOP-18 = system: HOP-18
DMS-273 = system: DMS-273
DMS-114 = system: DMS-114
MOLT-4 = system: MOLT-4
IGROV-1 = system: IGROV-1
SW-620 = system: SW-620
A549 = system: A549
RXF 393 = system: RXF 393
HOP-92 = system: HOP-92

Measured: GI50

Cc1ccc(NC(=O)CC/C(CC(=O)c2ccc(Cl)cc2)=N\NC(=O)C(=O)NN)cc1C
> 100 µM: HCT-15
inactive: ACHN > 100 µM | HL-60 > 100 µM | M19-MEL > 100 µM | OVCAR-3 > 100 µM | OVCAR-5 > 100 µM | NCI-H522 > 100 µM | SK-MEL-28 > 100 µM | U-251 > 100 µM | LOX IMVI > 100 µM | NCI-H460 > 100 µM | SK-MEL-2 > 100 µM | SK-OV-3 > 100 µM | UACC-257 > 100 µM | NCI-H226 > 100 µM | SNB-19 > 100 µM | EKVX > 100 µM | CCRF-CEM > 100 µM | SF-539 > 100 µM | CAKI-1 > 100 µM | SK-MEL-5 > 100 µM | SF-295 > 100 µM | KM12 > 100 µM | SR > 100 µM | LXFL 529 > 100 µM | UACC-62 > 100 µM | SNB-75 > 100 µM | HT-29 > 100 µM | HCT-116 > 100 µM | KM-20L2 > 100 µM | COLO 205 > 100 µM | OVCAR-8 > 100 µM | NCI-H23 > 100 µM | HCC 2998 > 100 µM | TK-10 > 100 µM | SF-268 > 100 µM | 786-0 > 100 µM | Malme-3M > 100 µM | M14 > 100 µM | SN12C > 100 µM | K562 > 100 µM | A498 > 100 µM | HOP-62 > 100 µM | DLD-1 > 100 µM | RPMI-8226 > 100 µM | OVCAR-4 > 100 µM | UO-31 > 100 µM | XF498 > 100 µM | SNB-78 > 100 µM | HOP-18 > 100 µM | DMS-273 > 100 µM | DMS-114 > 100 µM | MOLT-4 > 100 µM | IGROV-1 > 100 µM | SW-620 > 100 µM | A549 > 100 µM | RXF 393 > 100 µM

NC(=S)NNC(=O)/C(=C/c1ccc(/C=C(\NC(=O)c2ccccc2)C(=O)NNC(N)=S)cc1)NC(=O)c1ccccc1
> 100 µM: HCT-15
inactive: ACHN > 100 µM | HL-60 15.6 µM | M19-MEL 72.8 µM | OVCAR-3 > 100 µM | OVCAR-5 > 100 µM | NCI-H522 25.4 µM | SK-MEL-28 > 100 µM | U-251 85.7 µM | LOX IMVI 34.1 µM | NCI-H460 > 100 µM | SK-MEL-2 > 100 µM | SK-OV-3 > 100 µM | UACC-257 > 100 µM | NCI-H226 > 100 µM | SNB-19 > 100 µM | EKVX > 100 µM | CCRF-CEM 34.3 µM | SF-539 > 100 µM | CAKI-1 > 100 µM | SK-MEL-5 66.2 µM | SF-295 > 100 µM | KM12 > 100 µM | SR 26.1 µM | LXFL 529 80 µM | UACC-62 > 100 µM | SNB-75 30.4 µM | HT-29 > 100 µM | HCT-116 75 µM | KM-20L2 > 100 µM | COLO 205 > 100 µM | OVCAR-8 64 µM | NCI-H23 > 100 µM | HCC 2998 > 100 µM | TK-10 > 100 µM | SF-268 > 100 µM | 786-0 > 100 µM | Malme-3M > 100 µM | M14 > 100 µM | SN12C > 79.6 µM | K562 19.1 µM | A498 > 100 µM | HOP-62 > 100 µM | DLD-1 > 63.7 µM | HOP-92 > 100 µM | RPMI-8226 32.1 µM | OVCAR-4 97.5 µM | UO-31 > 100 µM | XF498 70 µM | SNB-78 53.3 µM | HOP-18 > 100 µM | DMS-273 > 100 µM | DMS-114 > 71.8 µM | MOLT-4 13.8 µM | IGROV-1 > 79.3 µM | SW-620 > 81.8 µM | A549 > 100 µM | RXF 393 > 75 µM
